From patent US11090319B2, “Therapeutic uses of pharmaceutical compositions comprising cyclic boronic acid ester derivatives” (Melinta Subsidiary Corp., priority 2010, dated 2021)

What was measured:
Assay type in all cases: cell-based
[1] = test system: AB1052 Acinetobacter baumannii OXA-24; assay: Ceftazidime MIC with fixed concentration of BLI; details: derivative at 10 μg/mL; AB1052 OXA-24
Procedure: (§1) Next, ceftazidime potentiation activity of several cyclic boronic acid ester derivatives was tested using a larger panel of strains expressing β-lactamase hydrolyzing enzymes. Ceftazidime MICs were determined alone and in the presence of fixed concentrations of various cyclic boronic acid ester derivatives.

[2] = test system: KP1014 Klebsiella pneumoniae Vim-1; assay: Ceftazidime MIC with fixed concentration of BLI; details: derivative at 10 μg/mL; KP1014 Vim-1
Procedure: as §1

[3] = test system: strains expressing KPC alone or in combination with additional beta-lactamases; assay: microbe, parasite or virus in culture
[4] = Enterobacter cloacae ECL1058, KPC-3, SHV-11, TEM-1, Compound 5 0.31 mg/L
[5] = Enterobacter cloacae ECL1058, KPC-3, SHV-11, TEM-1, Compound 5 0.625 mg/L
[6] = Enterobacter cloacae ECL1059, KPC-3, SHV-12, TEM-1, Compound 5 0.31 mg/L
[7] = Enterobacter cloacae ECL1059, KPC-3, SHV-12, TEM-1, Compound 5 0.625 mg/L
[8] = Enterobacter cloacae ECL1059, KPC-3, SHV-12, TEM-1, Compound 5 5 mg/L
[9] = Enterobacter cloacae ECL1059, KPC-3, SHV-12, TEM-1, Compound 5 10 mg/L
[10] = Enterobacter cloacae ECL1059, KPC-3, SHV-12, TEM-1, Compound 5 […]
[11] = Escherichia coli EC1007, KPC-3, Compound 5 0.31 mg/L
[12] = Escherichia coli EC1007, KPC-3, Compound 5 0.625 mg/L
[13] = Escherichia coli EC1007, KPC-3, Compound 5 5 mg/L
[14] = Escherichia coli EC1007, KPC-3, Compound 5 10 mg/L
[15] = Escherichia coli EC1007, KPC-3, Compound 5 […]
[16] = Klebsiella oxytoca KX1017, KPC-2, OXA-2, SHV-30, Compound 5 0.31 mg/L
[17] = Klebsiella oxytoca KX1017, KPC-2, OXA-2, SHV-30, Compound 5 0.625 mg/L
[18] = Klebsiella oxytoca KX1017, KPC-2, OXA-2, SHV-30, Compound 5 5 mg/L
[19] = Klebsiella oxytoca KX1017, KPC-2, OXA-2, SHV-30, Compound 5 10 mg/L
[20] = Klebsiella oxytoca KX1018, KPC-2, SHV-40, OXY-1, Compound 5 0.31 mg/L
[21] = Klebsiella oxytoca KX1018, KPC-2, SHV-40, OXY-1, Compound 5 0.625 mg/L
[22] = Klebsiella oxytoca KX1018, KPC-2, SHV-40, OXY-1, Compound 5 […]
[23] = Klebsiella oxytoca KX1019, KPC-2 OXA-2, Compound 5 0.625 mg/L
[24] = Klebsiella pneumoniae KP 1004, KPC-2, Compound 5 0.31 mg/L
[25] = Klebsiella pneumoniae KP 1004, KPC-2, Compound 5 0.625 mg/L
[26] = Klebsiella pneumoniae KP 1004, KPC-2, Compound 5 5 mg/L

O=C(O)C[C@@H]1CC[C@H](NC(=O)Cc2cccs2)B(O)O1 [Compound 5, 2-((3R,6S)-2-hydroxy-3-(2-(thiophen-2-yl)acetamido)-1,2-oxaborinan-6-yl)acetic acid]
Ceftazidime MIC with cyclic boronic acid ester derivative [1]: Z (MIC of greater than 8 μg/mL)
Ceftazidime MIC with cyclic boronic acid ester derivative [2]: Z (MIC of greater than 8 μg/mL)
potentiation of carbapenems [3]: significantly potentiate multiple carbapenems
MIC of Doripenem [3, 4]: Y (MIC of 0.5 mg/L to 4 mg/L)
MIC of Ertapenem [3, 4]: Z (MIC of greater than 4 mg/L)
MIC of Doripenem [3, 5]: Y (MIC of 0.5 mg/L to 4 mg/L)
MIC of Ertapenem [3, 5]: Z (MIC of greater than 4 mg/L)
MIC of Ertapenem ([3]; Enterobacter cloacae ECL1058, KPC-3, SHV-11, TEM-1, Compound 5 5 mg/L): X (MIC of less than 0.5 mg/L)
MIC of Ertapenem ([3]; Enterobacter cloacae ECL1058, KPC-3, SHV-11, TEM-1, Compound 5 10 mg/L): X (MIC of less than 0.5 mg/L)
MIC of Doripenem ([3]; Enterobacter cloacae ECL1058, KPC-3, SHV-11, TEM-1, Compound 5 […]): Y (MIC of 0.5 mg/L to 4 mg/L)
MIC of Doripenem [3, 6]: X (MIC of less than 0.5 mg/L)
MIC of Ertapenem [3, 6]: X (MIC of less than 0.5 mg/L)
MIC of Doripenem [3, 7]: X (MIC of less than 0.5 mg/L)
MIC of Ertapenem [3, 7]: X (MIC of less than 0.5 mg/L)
MIC of Biapenem [3, 8]: X (MIC of less than 0.5 mg/L)
MIC of Doripenem [3, 8]: X (MIC of less than 0.5 mg/L)
MIC of Ertapenem [3, 8]: X (MIC of less than 0.5 mg/L)
MIC of Biapenem [3, 9]: X (MIC of less than 0.5 mg/L)
MIC of Doripenem [3, 9]: X (MIC of less than 0.5 mg/L)
MIC of Ertapenem [3, 9]: X (MIC of less than 0.5 mg/L)
MIC of Biapenem [3, 10]: X (MIC of less than 0.5 mg/L)
MIC of Doripenem [3, 10]: X (MIC of less than 0.5 mg/L)
MIC of Ertapenem [3, 10]: X (MIC of less than 0.5 mg/L)
MIC of Doripenem [3, 11]: X (MIC of less than 0.5 mg/L)
MIC of Ertapenem [3, 11]: X (MIC of less than 0.5 mg/L)
MIC of Doripenem [3, 12]: X (MIC of less than 0.5 mg/L)
MIC of Ertapenem [3, 12]: X (MIC of less than 0.5 mg/L)
MIC of Doripenem [3, 13]: X (MIC of less than 0.5 mg/L)
MIC of Ertapenem [3, 13]: X (MIC of less than 0.5 mg/L)
MIC of Biapenem [3, 14]: X (MIC of less than 0.5 mg/L)
MIC of Doripenem [3, 14]: X (MIC of less than 0.5 mg/L)
MIC of Ertapenem [3, 14]: X (MIC of less than 0.5 mg/L)
MIC of Doripenem [3, 15]: X (MIC of less than 0.5 mg/L)
MIC of Ertapenem [3, 15]: X (MIC of less than 0.5 mg/L)
MIC of Biapenem [3, 16]: Y (MIC of 0.5 mg/L to 4 mg/L)
MIC of Doripenem [3, 16]: Y (MIC of 0.5 mg/L to 4 mg/L)
MIC of Ertapenem [3, 16]: Y (MIC of 0.5 mg/L to 4 mg/L)
MIC of Doripenem [3, 17]: Y (MIC of 0.5 mg/L to 4 mg/L)
MIC of Ertapenem [3, 17]: Y (MIC of 0.5 mg/L to 4 mg/L)
MIC of Biapenem [3, 18]: X (MIC of less than 0.5 mg/L)
MIC of Doripenem [3, 18]: X (MIC of less than 0.5 mg/L)
MIC of Ertapenem [3, 18]: X (MIC of less than 0.5 mg/L)
MIC of Biapenem [3, 19]: X (MIC of less than 0.5 mg/L)
MIC of Doripenem [3, 19]: X (MIC of less than 0.5 mg/L)
MIC of Ertapenem [3, 19]: X (MIC of less than 0.5 mg/L)
MIC of Biapenem [3, 20]: X (MIC of less than 0.5 mg/L)
MIC of Doripenem [3, 20]: X (MIC of less than 0.5 mg/L)
MIC of Ertapenem [3, 20]: X (MIC of less than 0.5 mg/L)
MIC of Biapenem [3, 21]: X (MIC of less than 0.5 mg/L)
MIC of Doripenem [3, 21]: X (MIC of less than 0.5 mg/L)
MIC of Ertapenem [3, 21]: X (MIC of less than 0.5 mg/L)
MIC of Biapenem [3, 22]: X (MIC of less than 0.5 mg/L)
MIC of Doripenem [3, 22]: X (MIC of less than 0.5 mg/L)
MIC of Ertapenem [3, 22]: X (MIC of less than 0.5 mg/L)
MIC of Ertapenem ([3]; Klebsiella oxytoca KX1019, KPC-2 OXA-2, Compound 5 0.31 mg/L): Y (MIC of 0.5 mg/L to 4 mg/L)
MIC of Doripenem [3, 23]: Y (MIC of 0.5 mg/L to 4 mg/L)
MIC of Ertapenem [3, 23]: Y (MIC of 0.5 mg/L to 4 mg/L)
MIC of Ertapenem ([3]; Klebsiella oxytoca KX1019, KPC-2 OXA-2, Compound 5 5 mg/L): X (MIC of less than 0.5 mg/L)
MIC of Ertapenem ([3]; Klebsiella oxytoca KX1019, KPC-2 OXA-2, Compound 5 10 mg/L): X (MIC of less than 0.5 mg/L)
MIC of Ertapenem ([3]; Klebsiella oxytoca KX1019, KPC-2 OXA-2, Compound 5 […]): Y (MIC of 0.5 mg/L to 4 mg/L)
MIC of Biapenem [3, 24]: X (MIC of less than 0.5 mg/L)
MIC of Doripenem [3, 24]: X (MIC of less than 0.5 mg/L)
MIC of Ertapenem [3, 24]: Y (MIC of 0.5 mg/L to 4 mg/L)
MIC of Biapenem [3, 25]: X (MIC of less than 0.5 mg/L)
MIC of Doripenem [3, 25]: X (MIC of less than 0.5 mg/L)
MIC of Ertapenem [3, 25]: Y (MIC of 0.5 mg/L to 4 mg/L)
MIC of Biapenem [3, 26]: X (MIC of less than 0.5 mg/L)
MIC of Doripenem [3, 26]: X (MIC of less than 0.5 mg/L)
MIC of Ertapenem [3, 26]: X (MIC of less than 0.5 mg/L)
